Experimental data published in the supplement of paper PMC6045584.
± gives the standard deviation of the averaged measurements.

Assays:
DASATINIB = compound: Cc1nc(Nc2ncc(C(=O)Nc3c(C)cccc3Cl)s2)cc(N2CCN(CCO)CC2)n1 [DASATINIB]; assay: surviving fraction relative to DMSO-only wells; higher = less growth inhibition; conditions: exposure time: 5 days
Method in brief: (§1)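 Tumour cell lines were seeded in log phase at 250–500 cells per well into 384-well plates. Starting 24 hours later, inhibitors were present continuously for five days at 0.5, 1, 5, 10, 50, 100, 500 and 1000 nM. Surviving fraction, from CellTiter-Glo luminescence, is normalised to the median of DMSO-only wells. Three screens per line were required, with replicate Pearson r >0.7 and median Z' >0.3 for a line to be kept.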

[1] = compound: C[C@@H](Oc1cc(-c2cnn(C3CCNCC3)c2)cnc1N)c1c(Cl)ccc(F)c1Cl; assay: as above; conditions: exposure time: 5 days
Method in brief: as §1

## SUM149.B1*.S BREAST
DASATINIB; 0.5 nM
  surviving fraction: 0.905 ± 0.034
DASATINIB; 1 nM
  surviving fraction: 0.879 ± 0.036
DASATINIB; 5 nM
  surviving fraction: 0.811 ± 0.024
DASATINIB; 10 nM
  surviving fraction: 0.75 ± 0.047
DASATINIB; 50 nM
  surviving fraction: 0.5 ± 0.018
DASATINIB; 100 nM
  surviving fraction: 0.358 ± 0.0082
DASATINIB; 500 nM
  surviving fraction: 0.332 ± 0.0043
DASATINIB; 1000 nM
  surviving fraction: 0.353 ± 0.032
[1]; 0.5 nM
  surviving fraction: 0.902 ± 0.028
[1]; 1 nM
  surviving fraction: 0.898 ± 0.036
[1]; 5 nM
  surviving fraction: 0.921 ± 0.037
[1]; 10 nM
  surviving fraction: 0.904 ± 0.04
[1]; 50 nM
  surviving fraction: 0.96 ± 0.032
[1]; 100 nM
  surviving fraction: 0.929 ± 0.037
[1]; 500 nM
  surviving fraction: 0.855 ± 0.056
[1]; 1000 nM
  surviving fraction: 0.729 ± 0.051

## SUM159 BREAST
DASATINIB; 0.5 nM
  surviving fraction: 0.948 ± 0.026
DASATINIB; 1 nM
  surviving fraction: 0.981 ± 0.011
DASATINIB; 5 nM
  surviving fraction: 0.955 ± 0.015
DASATINIB; 10 nM
  surviving fraction: 0.921 ± 0.022
DASATINIB; 50 nM
  surviving fraction: 0.907 ± 0.011
DASATINIB; 100 nM
  surviving fraction: 0.778 ± 0.048
DASATINIB; 500 nM
  surviving fraction: 0.59 ± 0.035
DASATINIB; 1000 nM
  surviving fraction: 0.606 ± 0.055
[1]; 0.5 nM
  surviving fraction: 1.07 ± 0.2
[1]; 1 nM
  surviving fraction: 1.07 ± 0.17
[1]; 5 nM
  surviving fraction: 1.07 ± 0.18
[1]; 10 nM
  surviving fraction: 1.05 ± 0.16
[1]; 50 nM
  surviving fraction: 1.07 ± 0.19
[1]; 100 nM
  surviving fraction: 0.984 ± 0.06
[1]; 500 nM
  surviving fraction: 1.04 ± 0.19
[1]; 1000 nM
  surviving fraction: 0.94 ± 0.086

## SYO1 SYNOVIAL
DASATINIB; 0.5 nM
  surviving fraction: 0.777 ± 0.024
DASATINIB; 1 nM
  surviving fraction: 0.758 ± 0.041
DASATINIB; 5 nM
  surviving fraction: 0.651 ± 0.03
DASATINIB; 10 nM
  surviving fraction: 0.566 ± 0.07
DASATINIB; 50 nM
  surviving fraction: 0.415 ± 0.02
DASATINIB; 100 nM
  surviving fraction: 0.383 ± 0.026
DASATINIB; 500 nM
  surviving fraction: 0.351 ± 0.011
DASATINIB; 1000 nM
  surviving fraction: 0.34 ± 0.017
[1]; 0.5 nM
  surviving fraction: 0.814 ± 0.068
[1]; 1 nM
  surviving fraction: 0.821 ± 0.064
[1]; 5 nM
  surviving fraction: 0.822 ± 0.031
[1]; 10 nM
  surviving fraction: 0.781 ± 0.027
[1]; 50 nM
  surviving fraction: 0.904 ± 0.01
[1]; 100 nM
  surviving fraction: 0.829 ± 0.036
[1]; 500 nM
  surviving fraction: 0.26 ± 0.063
[1]; 1000 nM
  surviving fraction: 0.123 ± 0.0083

## T47D BREAST
DASATINIB; 0.5 nM
  surviving fraction: 0.937 ± 0.032
DASATINIB; 1 nM
  surviving fraction: 0.903 ± 0.043
DASATINIB; 5 nM
  surviving fraction: 0.903 ± 0.057
DASATINIB; 10 nM
  surviving fraction: 0.937 ± 0.042
DASATINIB; 50 nM
  surviving fraction: 1 ± 0.035
DASATINIB; 100 nM
  surviving fraction: 0.975 ± 0.042
DASATINIB; 500 nM
  surviving fraction: 0.964 ± 0.048
DASATINIB; 1000 nM
  surviving fraction: 0.982 ± 0.061
[1]; 0.5 nM
  surviving fraction: 0.912 ± 0.03
[1]; 1 nM
  surviving fraction: 0.949 ± 0.026
[1]; 5 nM
  surviving fraction: 0.938 ± 0.049
[1]; 10 nM
  surviving fraction: 0.95 ± 0.026
[1]; 50 nM
  surviving fraction: 1.02 ± 0.038
[1]; 100 nM
  surviving fraction: 1.03 ± 0.059
[1]; 1000 nM
  surviving fraction: 0.856 ± 0.041

## U2OS BONE
DASATINIB; 0.5 nM
  surviving fraction: 0.951 ± 0.031
DASATINIB; 1 nM
  surviving fraction: 0.953 ± 0.022
DASATINIB; 5 nM
  surviving fraction: 0.957 ± 0.059
DASATINIB; 10 nM
  surviving fraction: 0.865 ± 0.051
DASATINIB; 50 nM
  surviving fraction: 0.8 ± 0.035
DASATINIB; 100 nM
  surviving fraction: 0.692 ± 0.021
DASATINIB; 500 nM
  surviving fraction: 0.514 ± 0.024
DASATINIB; 1000 nM
  surviving fraction: 0.503 ± 0.006
[1]; 0.5 nM
  surviving fraction: 0.938 ± 0.047
[1]; 1 nM
  surviving fraction: 0.974 ± 0.027
[1]; 5 nM
  surviving fraction: 0.98 ± 0.028
[1]; 100 nM
  surviving fraction: 0.976 ± 0.052
[1]; 500 nM
  surviving fraction: 0.474 ± 0.02
[1]; 1000 nM
  surviving fraction: 0.472 ± 0.012

## VCAP PROSTATE
DASATINIB; 0.5 nM
  surviving fraction: 0.856 ± 0.048
DASATINIB; 1 nM
  surviving fraction: 0.89 ± 0.014
DASATINIB; 5 nM
  surviving fraction: 0.923 ± 0.026
DASATINIB; 10 nM
  surviving fraction: 0.943 ± 0.091
DASATINIB; 50 nM
  surviving fraction: 1.01 ± 0.12
DASATINIB; 100 nM
  surviving fraction: 1.02 ± 0.11
DASATINIB; 500 nM
  surviving fraction: 1.02 ± 0.061
DASATINIB; 1000 nM
  surviving fraction: 0.932 ± 0.062
[1]; 1 nM
  surviving fraction: 0.919 ± 0.097
[1]; 5 nM
  surviving fraction: 1.02 ± 0.091
[1]; 10 nM
  surviving fraction: 1.01 ± 0.031
[1]; 50 nM
  surviving fraction: 1.08 ± 0.055
[1]; 100 nM
  surviving fraction: 0.897 ± 0.061
[1]; 500 nM
  surviving fraction: 0.429 ± 0.027
[1]; 1000 nM
  surviving fraction: 0.143 ± 0.0055

## VP229 BREAST
DASATINIB; 0.5 nM
  surviving fraction: 0.813 ± 0.044
DASATINIB; 1 nM
  surviving fraction: 0.855 ± 0.081
DASATINIB; 5 nM
  surviving fraction: 0.708 ± 0.031
DASATINIB; 10 nM
  surviving fraction: 0.619 ± 0.027
DASATINIB; 50 nM
  surviving fraction: 0.467 ± 0.032
DASATINIB; 100 nM
  surviving fraction: 0.484 ± 0.0085
DASATINIB; 500 nM
  surviving fraction: 0.45 ± 0.031
DASATINIB; 1000 nM
  surviving fraction: 0.484 ± 0.018
[1]; 0.5 nM
  surviving fraction: 0.809 ± 0.029
[1]; 5 nM
  surviving fraction: 0.95 ± 0.11
[1]; 10 nM
  surviving fraction: 0.777 ± 0.12
[1]; 50 nM
  surviving fraction: 1.08 ± 0.098
[1]; 1000 nM
  surviving fraction: 0.544 ± 0.024

## YAMATO SYNOVIAL
DASATINIB; 0.5 nM
  surviving fraction: 0.822 ± 0.18
DASATINIB; 1 nM
  surviving fraction: 0.729 ± 0.097
DASATINIB; 5 nM
  surviving fraction: 0.836 ± 0.19
DASATINIB; 10 nM
  surviving fraction: 0.771 ± 0.2
DASATINIB; 50 nM
  surviving fraction: 0.848 ± 0.13
DASATINIB; 100 nM
  surviving fraction: 0.753 ± 0.11
DASATINIB; 500 nM
  surviving fraction: 0.63 ± 0.039
DASATINIB; 1000 nM
  surviving fraction: 0.677 ± 0.074
[1]; 0.5 nM
  surviving fraction: 0.796 ± 0.0095
[1]; 1 nM
  surviving fraction: 0.763 ± 0.069
[1]; 5 nM
  surviving fraction: 0.79 ± 0.015
[1]; 10 nM
  surviving fraction: 0.724 ± 0.12
[1]; 50 nM
  surviving fraction: 0.425 ± 0.015
[1]; 100 nM
  surviving fraction: 0.309 ± 0.014
[1]; 500 nM
  surviving fraction: 0.279 ± 0.014
[1]; 1000 nM
  surviving fraction: 0.333 ± 0.024

## ZR751 BREAST
DASATINIB; 0.5 nM
  surviving fraction: 0.934 ± 0.066
DASATINIB; 1 nM
  surviving fraction: 0.965 ± 0.23
DASATINIB; 5 nM
  surviving fraction: 0.851 ± 0.098
DASATINIB; 10 nM
  surviving fraction: 0.835 ± 0.045
DASATINIB; 50 nM
  surviving fraction: 0.877 ± 0.12
DASATINIB; 100 nM
  surviving fraction: 0.852 ± 0.18
DASATINIB; 500 nM
  surviving fraction: 1 ± 0.14
DASATINIB; 1000 nM
  surviving fraction: 0.922 ± 0.17
[1]; 0.5 nM
  surviving fraction: 0.874 ± 0.087
[1]; 1 nM
  surviving fraction: 0.924 ± 0.052
[1]; 5 nM
  surviving fraction: 0.873 ± 0.082
[1]; 10 nM
  surviving fraction: 0.797 ± 0.046
[1]; 50 nM
  surviving fraction: 0.82 ± 0.14
[1]; 100 nM
  surviving fraction: 0.967 ± 0.052
[1]; 500 nM
  surviving fraction: 0.727 ± 0.074
[1]; 1000 nM
  surviving fraction: 0.699 ± 0.077
